In test [1] the test system is Phosphorylated Ribosomal Protein S6 (RPS6) in THP-1 cells. In words: THP-1 RPS6 ELISA Assay. Type of test: cell-based. The note with it: Homo sapiens; serum starved THP-1 cells, 2 hours with compound, 10 nM MCP-1 for 15 minutes, Phospho-RPS6 ELISA; read-out: PI3Kγ_THP1_RPS6_ELISA IC50. On the procedure: Example A. THP-1 RPS6 ELISA Assay
To measure the Phosphorylated Ribosomal Protein S6 (RPS6) in cell lysates, THP-1 cells (Human Acute Monocytic Leukemia) are purchased from ATCC (Manassas, Va.) and maintained in RPMI with 10% FBS (Gibco/Life Technologies, Carlsbad, Calif.). For the assay, THP-1 cells are serum starved overnight in RPMI, then plated in RPMI (2×10^5 cells/well in 90 μL) into 96-well flat-bottom tissue culture treated plates (Corning, Corning, N.Y.), in the presence or absence of a concentration range of test compounds. Covered plates are incubated for 2 hours at 37° C., 5% CO2 then treated with or without 10 nM MCP-1 (MYBioSource, San Diego, Calif.) for 15 minutes at 37° C., 5% CO2. Plates are centrifuged at 1600 RPM and supernatants are removed. Cells are lysed in Lysis Buffer (Cell Signaling, Danvers, Mass.) with Protease Inhibitor (Calbiochem/EMD, Germany), PMSF (Sigma, St Louis Mo.), HALTS (Thermo Fisher, Rockford, Ill.) for 30 min on wet ice. Cell lysates are frozen at −80° C. before testing. The lysates are tested in the Human/Mouse/Rat Phospho-RPS6 ELISA (R&D Systems, Inc. Minn, Minn.). The plate is measured using a microplate reader (SpectraMax M5—Molecular Devices, LLC Sunnyvale, Calif.) set to 450 nm with a wavelength correction of 540. IC50 determination is performed by fitting the curve of inhibitor percent inhibition versus the log of the inhibitor concentration using the GraphPad Prism 5.0 software.

The target in test [2] is PI3Kδ (p110δ/p85α) Recombinant Human Protein (Homo sapiens (Human), UniProt O00329). The test is described as follows: PI3Kδ Scintillation Proximity Assay. Type of test: biochemical. The following applies: 20 μM PIP2, 2 μM ATP, 3.4 nM PI3Kδ, 120 min, room temperature. From the text:
Example C. PI3Kδ Scintillation Proximity Assay
[γ-^33P]ATP (10 mCi/mL) and Wheat Germ Agglutinin (WGA) YSi SPA Scintillation Beads was purchased from Perkin-Elmer (Waltham, Mass.). Lipid kinase substrate, D-myo-Phosphatidylinositol 4,5-bisphosphate (PtdIns(4,5)P2)D (+)-sn-1,2-di-O-octanoylglyceryl, 3-O-phospho linked (PIP2), CAS 204858-53-7, was purchased from Echelon Biosciences (Salt Lake City, Utah). PI3Kδ (p110δ/p85α) Recombinant Human Protein was purchased from Eurofins (St Charles, Mo.). ATP, MgCl2, DTT, EDTA, MOPS and CHAPS were purchased from Sigma-Aldrich (St. Louis, Mo.).
(§1) The kinase reaction was conducted in polystyrene 384-well Greiner Bio-one white plate from Thermo Fisher Scientific in a final volume of 25 μL. Inhibitors were first diluted serially in DMSO and added to the plate wells before the addition of other reaction components. The final concentration of DMSO in the assay was 2%. The PI3Kδ assay was carried out at room temperature in 20 mM MOPS, pH 6.7, 10 mM MgCl2, 5 mM DTT and CHAPS 0.03%. Reactions were initiated by the addition of ATP, the final reaction mixture consisted of 20 μM PIP2, 2 μM ATP, 0.5 μCi [γ-^33P] ATP, 3.4 nM PI3Kδ. Reactions were incubated for 120 min and terminated by the addition of 40 μL SPA beads suspended in quench buffer: 163 mM potassium phosphate pH 7.8, 20% glycerol, 25 mM EDTA. The final concentration of SPA beads is 1.0 mg/mL. After the plate sealing, plates were shaken overnight at room temperature and centrifuged at 1500 rpm for 10 min, the radioactivity of the product was determined by scintillation counting on Topcount (Perkin-Elmer). IC50 determination was performed by fitting the curve of percent of the solvent control activity versus the log of the inhibitor concentration using the GraphPad Prism 6.0 software.
On the technique in general: Scintillation proximity formats need no separation of bound from free tracer.

Test [3] concerns the target PI3Kγ (p110γ) Recombinant Human Protein (Homo sapiens (Human), UniProt P48736). The test is described as follows: PI3K-γ Scintillation Proximity Assay. Type of test: biochemical. The note with it: 20 μM PIP2, 2 μM ATP, 13 nM PI3Kγ, 120 min, room temperature.
From the text: Example B. PI3K-γ Scintillation Proximity Assay
[γ-^33P]ATP (10 mCi/mL) and Wheat Germ Agglutinin (WGA) YSi SPA Scintillation Beads was purchased from Perkin-Elmer (Waltham, Mass.). Lipid kinase substrate, D-myo-Phosphatidylinositol 4,5-bisphosphate (PtdIns(4,5)P2)D (+)-sn-1,2-di-O-octanoylglyceryl, 3-O-phospho linked (PIP2), CAS 204858-53-7, was purchased from Echelon Biosciences (Salt Lake City, Utah). PI3Kγ (p110γ) Recombinant Human Protein was purchased from Life technology (Grand island, NY), ATP, MgCl2, DTT, EDTA, MOPS and CHAPS were purchased from Sigma-Aldrich (St. Louis, Mo.).
as §1, with “PI3Kγ” for “PI3Kδ”, “13” for “3.4”, “PI3Kγ.” for “PI3Kδ.”

Structures can show the parent of a compound that is named as a salt.

The IC50 is the concentration that gives 50% inhibition.

Sequence of PI3Kγ (p110γ) Recombinant Human Protein (P48736 whole entry): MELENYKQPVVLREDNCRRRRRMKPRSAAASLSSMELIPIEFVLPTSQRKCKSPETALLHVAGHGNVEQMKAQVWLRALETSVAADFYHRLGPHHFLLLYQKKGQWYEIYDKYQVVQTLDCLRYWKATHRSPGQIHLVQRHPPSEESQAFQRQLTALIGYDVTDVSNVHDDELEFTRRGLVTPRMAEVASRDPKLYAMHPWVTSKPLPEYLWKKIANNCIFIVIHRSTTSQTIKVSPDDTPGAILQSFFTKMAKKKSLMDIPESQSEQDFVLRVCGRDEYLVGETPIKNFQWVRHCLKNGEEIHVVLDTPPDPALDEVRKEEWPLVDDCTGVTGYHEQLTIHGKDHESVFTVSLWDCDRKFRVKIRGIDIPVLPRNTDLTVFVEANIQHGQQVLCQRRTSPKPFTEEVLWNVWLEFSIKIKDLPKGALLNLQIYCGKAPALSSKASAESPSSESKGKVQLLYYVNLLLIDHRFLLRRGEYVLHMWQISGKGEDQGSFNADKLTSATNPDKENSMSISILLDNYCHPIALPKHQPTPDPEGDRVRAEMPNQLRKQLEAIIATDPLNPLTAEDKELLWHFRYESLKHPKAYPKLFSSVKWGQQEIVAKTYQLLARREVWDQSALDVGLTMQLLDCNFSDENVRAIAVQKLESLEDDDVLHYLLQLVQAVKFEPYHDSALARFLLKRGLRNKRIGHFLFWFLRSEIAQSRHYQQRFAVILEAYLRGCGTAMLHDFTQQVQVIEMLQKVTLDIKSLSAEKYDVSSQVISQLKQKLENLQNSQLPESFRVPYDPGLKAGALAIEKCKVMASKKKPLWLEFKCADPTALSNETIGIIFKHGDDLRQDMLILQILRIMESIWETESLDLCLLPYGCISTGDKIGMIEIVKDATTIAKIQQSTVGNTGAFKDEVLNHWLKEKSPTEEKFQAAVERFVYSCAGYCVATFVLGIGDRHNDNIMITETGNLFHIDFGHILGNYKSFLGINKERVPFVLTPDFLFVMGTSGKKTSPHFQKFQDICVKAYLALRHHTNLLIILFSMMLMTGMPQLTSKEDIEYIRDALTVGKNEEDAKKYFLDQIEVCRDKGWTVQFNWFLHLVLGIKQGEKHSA
Sequence of PI3Kδ (p110δ/p85α) Recombinant Human Protein (O00329 whole entry): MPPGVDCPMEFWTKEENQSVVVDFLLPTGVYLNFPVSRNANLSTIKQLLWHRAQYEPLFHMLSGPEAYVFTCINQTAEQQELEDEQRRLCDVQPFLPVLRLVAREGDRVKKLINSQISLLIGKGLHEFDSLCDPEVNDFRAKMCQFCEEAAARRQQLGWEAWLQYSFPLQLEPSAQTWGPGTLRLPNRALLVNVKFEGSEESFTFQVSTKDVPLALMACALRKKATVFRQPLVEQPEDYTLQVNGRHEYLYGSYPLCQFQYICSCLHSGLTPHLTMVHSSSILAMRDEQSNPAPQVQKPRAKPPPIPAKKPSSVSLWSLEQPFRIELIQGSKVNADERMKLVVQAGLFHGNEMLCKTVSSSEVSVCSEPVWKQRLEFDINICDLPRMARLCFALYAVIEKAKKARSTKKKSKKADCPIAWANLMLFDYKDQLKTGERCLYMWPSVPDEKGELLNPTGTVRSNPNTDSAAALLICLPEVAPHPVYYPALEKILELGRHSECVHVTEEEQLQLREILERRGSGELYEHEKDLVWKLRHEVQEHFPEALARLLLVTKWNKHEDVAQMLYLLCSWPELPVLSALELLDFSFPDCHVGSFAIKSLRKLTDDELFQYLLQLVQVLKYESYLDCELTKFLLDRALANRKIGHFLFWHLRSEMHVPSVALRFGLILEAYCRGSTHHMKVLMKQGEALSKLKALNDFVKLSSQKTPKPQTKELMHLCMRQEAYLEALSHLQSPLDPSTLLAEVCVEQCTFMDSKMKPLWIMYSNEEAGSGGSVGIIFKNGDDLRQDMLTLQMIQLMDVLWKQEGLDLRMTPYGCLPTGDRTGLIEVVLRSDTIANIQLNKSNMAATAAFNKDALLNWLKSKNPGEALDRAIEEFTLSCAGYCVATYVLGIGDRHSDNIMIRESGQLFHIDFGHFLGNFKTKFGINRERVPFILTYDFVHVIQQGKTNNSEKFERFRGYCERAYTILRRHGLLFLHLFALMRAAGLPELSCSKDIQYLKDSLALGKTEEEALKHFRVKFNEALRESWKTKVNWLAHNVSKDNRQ
Sequence of PI3Kδ (p110δ/p85α) Recombinant Human Protein (P27986 whole entry partner): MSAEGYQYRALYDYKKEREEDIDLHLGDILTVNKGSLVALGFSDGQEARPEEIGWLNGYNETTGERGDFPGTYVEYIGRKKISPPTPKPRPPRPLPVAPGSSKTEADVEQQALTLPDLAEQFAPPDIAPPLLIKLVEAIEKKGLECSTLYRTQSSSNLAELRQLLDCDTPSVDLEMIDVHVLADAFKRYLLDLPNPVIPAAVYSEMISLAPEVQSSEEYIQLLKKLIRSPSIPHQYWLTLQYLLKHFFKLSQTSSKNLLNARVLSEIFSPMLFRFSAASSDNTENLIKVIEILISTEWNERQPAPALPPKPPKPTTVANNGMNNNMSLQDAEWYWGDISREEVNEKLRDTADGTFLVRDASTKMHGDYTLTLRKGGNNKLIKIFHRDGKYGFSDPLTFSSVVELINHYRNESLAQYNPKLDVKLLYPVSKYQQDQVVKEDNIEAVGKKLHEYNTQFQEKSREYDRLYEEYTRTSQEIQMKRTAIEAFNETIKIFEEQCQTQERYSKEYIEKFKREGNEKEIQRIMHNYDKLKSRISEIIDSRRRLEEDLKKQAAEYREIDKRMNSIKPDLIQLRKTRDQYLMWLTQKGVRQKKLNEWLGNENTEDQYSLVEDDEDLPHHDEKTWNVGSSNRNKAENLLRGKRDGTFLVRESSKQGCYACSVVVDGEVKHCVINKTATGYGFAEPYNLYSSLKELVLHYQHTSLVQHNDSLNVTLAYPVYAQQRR

Take `[2H]C([2H])([2H])c1ccc(S(=O)(=O)NC23CC(C#N)(C2)C3)cc1-c1cnc(N)c(-n2nccn2)n1` [Example 50, 3-(5-Amino-6-(2H-1,2,3-triazol-2-yl)pyrazin-2-yl)-N-(3-cyanobicyclo[1.1.1]pentan-1-yl)-4-(methyl-d3)benzenesulfonamide Trifluoroacetate Salt]: the results for the IC50 in test [1], in test [2] and in test [3] were ≤ 500 nM, ≤ 100 nM and ≤ 100 nM, respectively.
For `Cc1ncc(-c2cc(-c3cc(S(=O)(=O)NC45COC(CO)(C4)C5)ccc3C)cnc2N)s1` [Example 86, 3-(6-amino-5-(2-methylthiazol-5-yl)pyridin-3-yl)-N-(1-(hydroxymethyl)-2-oxabicyclo[2.1.1]hexan-4-yl)-4-methylbenzenesulfonamide], the IC50 in test [1] was ≤ 500 nM; in test [2] it was ≤ 500 nM; in test [3], ≤ 100 nM.
On to `[2H]C([2H])([2H])c1ccc(S(=O)(=O)NC23COC(CO)(C2)C3)cc1-c1cnc(N)c(-c2cnc(C3CC3)s2)n1` [Example 61, 3-(5-Amino-6-(2-cyclopropylthiazol-5-yl)pyrazin-2-yl)-N-(1-(hydroxymethyl)-2-oxabicyclo[2.1.1]hexan-4-yl)-4-(methyl-d3)benzenesulfonamide Trifluoroacetate Salt], for which the IC50 in test [1], in test [2] and in test [3] was ≤ 100 nM throughout.
Consider `Cc1ccc(S(=O)(=O)NC23CCC(CO)(CC2)OC3)cc1-c1cnc(N)c(-c2ccncc2C#N)n1` [Example 22, 3-(5-Amino-6-(3-cyanopyridin-4-yl)pyrazin-2-yl)-N-(1-(hydroxymethyl)-2-oxabicyclo[2.2.2]octan-4-yl)-4-methylbenzenesulfonamide trifluoroacetate salt], for which the IC50 in test [2] was ≥ 2000 nM; in test [3], < 2000 nM.
The like results for `[2H]C([2H])([2H])c1ccc(S(=O)(=O)NC23CC(CO)(C2)C3)cc1-c1cnc(N)c(-n2nccn2)n1` [Example 51, 3-(5-Amino-6-(2H-1,2,3-triazol-2-yl)pyrazin-2-yl)-N-(3-(hydroxymethyl)bicyclo[1.1.1]pentan-1-yl)-4-(methyl-d3)benzenesulfonamide Trifluoroacetate Salt] were, in that order, < 2000 nM and ≤ 100 nM.
The like results for `Cc1ccc(S(=O)(=O)NC23CCC(C#N)(C2)C3)cc1-c1cnc(N)c(-c2nn[nH]n2)n1` [Example 37, 3-(5-Amino-6-(2H-tetrazol-5-yl)pyrazin-2-yl)-N-(4-cyanobicyclo[2.1.1]hexan-1-yl)-4-methylbenzenesulfonamide Trifluoroacetate Salt] were, in that order, ≥ 2000 nM and ≤ 100 nM.
The like results for `Cc1ccc(S(=O)(=O)NC23COC(CO)(C2)C3)cc1-c1cnc(N)c(-c2cn(C)nc2C)c1` [Example 84, 3-(6-amino-5-(1,3-dimethyl-1H-pyrazol-4-yl)pyridin-3-yl)-N-(1-(hydroxymethyl)-2-oxabicyclo[2.1.1]hexan-4-yl)-4-methylbenzenesulfonamide] were, in that order, ≤ 500 nM and ≤ 500 nM.
As to `[2H]C([2H])([2H])c1ccc(S(=O)(=O)NC23CNC(C2)C3)cc1-c1cnc(N)c(-n2nccn2)n1` [Example 52, 3-(5-Amino-6-(2H-1,2,3-triazol-2-yl)pyrazin-2-yl)-N-(2-azabicyclo[2.1.1]hexan-4-yl)-4-(methyl-d3)benzenesulfonamide Trifluoroacetate Salt], the IC50 in test [2] and in test [3] was ≤ 500 nM throughout.
In the case of `Cc1ccc(S(=O)(=O)NC23CC(C(=O)N(C)C)(C2)C3)cc1-c1cnc(N)c(-n2cncn2)n1` [Example 33, 3-(3-(5-Amino-6-(1H-1,2,4-triazol-1-yl)pyrazin-2-yl)-4-methylphenylsulfonamido)-N,N-dimethylbicyclo[1.1.1]pentane-1-carboxamide trifluoroacetate salt], the IC50 in test [2] is ≤ 500 nM; in test [3] it was ≤ 100 nM.
On to `[2H]C([2H])([2H])c1ccc(S(=O)(=O)NC23CCC(C#N)(C2)C3)cc1-c1cnc(N)c(-c2cncnc2)n1` [Example 64, 3-(5-Amino-6-(pyrimidin-5-yl)pyrazin-2-yl)-N-(4-cyanobicyclo[2.1.1]hexan-1-yl)-4-(methyl-d3)benzenesulfonamide trifluoroacetate salt], for which the half-maximal inhibitory concentration (IC50) in test [1] is ≤ 100 nM.
Take `Cc1ccc(S(=O)(=O)NC23CC(C#N)(C2)C3)cc1-c1cnc(N)c(-c2nn[nH]n2)n1` [Example 36, 3-(5-Amino-6-(2H-tetrazol-5-yl)pyrazin-2-yl)-N-(3-cyanobicyclo[1.1.1]pentan-1-yl)-4-methylbenzenesulfonamide Trifluoroacetate Salt]: the values for the IC50 in test [2] and in test [3] were ≥ 2000 nM and ≤ 100 nM, respectively.
For `[2H]C([2H])([2H])c1ccc(S(=O)(=O)NC23CC(C2)N(C(C)C)C3)cc1-c1cnc(N)c(-n2cncn2)n1` [Example 60, 3-(5-Amino-6-(1H-1,2,4-triazol-1-yl)pyrazin-2-yl)-N-(2-isopropyl-2-azabicyclo[2.1.1]hexan-4-yl)-4-(methyl-d3)benzenesulfonamide Trifluoroacetate Salt], in that order: ≤ 500 nM and ≤ 100 nM.
For `O=C(O)C(F)(F)F.[2H]C([2H])([2H])c1ccc(S(=O)(=O)NC23CNC(C2)C3)cc1-c1cnc(N)c(-n2cncn2)n1` [Example 53, 3-(5-Amino-6-(1H-1,2,4-triazol-1-yl)pyrazin-2-yl)-N-(2-azabicyclo[2.1.1]hexan-4-yl)-4-(methyl-d3)benzenesulfonamide trifluoroacetate salt], in that order: ≤ 500 nM and ≤ 100 nM.
For `CNC(=O)C12CC(NS(=O)(=O)c3ccc(C)c(-c4cnc(N)c(-n5cncn5)n4)c3)(C1)C2` [Example 32, 3-(3-(5-Amino-6-(1H-1,2,4-triazol-1-yl)pyrazin-2-yl)-4-methylphenylsulfonamido)-N-methylbicyclo[1.1.1]pentane-1-carboxamide trifluoroacetate Salt], in that order: < 2000 nM and ≤ 100 nM.

These data come from US11306079B2, “3-(5-amino-pyrazin-2-yl)-benzenesulfonamide derivatives and related compounds as PI3K-gamma kinase inhibitors” (Incyte Corporation, priority 2017, dated 2022).
